Results as given in US8791267B2, “Biaryl PDE4 inhibitors for treating inflammatory, cardiovascular and CNS disorders” (Decode Genetics EHF, priority 2007, dated 2014).
Where a name gives a salt, the structure may show the parent alone. Read-outs that look alike come from different tables or passages of the source.

How the values were obtained:
PDE4 = PDE4 (Homo sapiens, UniProt Q08499); test: In-vitro assay for PDE4 enzymes, real-time enzyme-coupled spectrophotometric assay (Table 9); type: biochemical
PDE4, sequence (Q08499 whole entry): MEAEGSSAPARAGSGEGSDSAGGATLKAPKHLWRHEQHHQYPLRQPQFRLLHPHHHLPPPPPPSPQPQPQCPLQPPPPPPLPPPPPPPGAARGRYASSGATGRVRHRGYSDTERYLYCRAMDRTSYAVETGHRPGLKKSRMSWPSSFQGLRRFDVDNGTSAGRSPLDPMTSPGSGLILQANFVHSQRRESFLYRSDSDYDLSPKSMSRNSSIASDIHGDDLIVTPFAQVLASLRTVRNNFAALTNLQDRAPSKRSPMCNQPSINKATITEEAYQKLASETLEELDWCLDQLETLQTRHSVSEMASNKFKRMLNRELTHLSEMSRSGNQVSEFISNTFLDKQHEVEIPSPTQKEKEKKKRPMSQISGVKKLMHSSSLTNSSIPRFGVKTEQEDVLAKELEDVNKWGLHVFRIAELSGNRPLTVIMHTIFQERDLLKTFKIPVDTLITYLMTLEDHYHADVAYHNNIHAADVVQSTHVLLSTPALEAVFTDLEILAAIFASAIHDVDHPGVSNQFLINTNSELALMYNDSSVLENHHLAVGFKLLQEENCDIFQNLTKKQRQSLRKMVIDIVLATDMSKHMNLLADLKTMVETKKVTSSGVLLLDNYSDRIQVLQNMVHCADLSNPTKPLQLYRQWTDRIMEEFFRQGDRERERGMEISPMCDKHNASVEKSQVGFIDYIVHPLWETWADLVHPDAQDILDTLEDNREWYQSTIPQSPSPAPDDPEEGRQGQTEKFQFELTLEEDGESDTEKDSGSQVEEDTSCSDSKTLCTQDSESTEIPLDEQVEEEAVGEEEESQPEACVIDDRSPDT

PDE4B = PDE4B (Homo sapiens, UniProt Q07343); test: In-vitro assay for PDE4 enzymes, real-time enzyme-coupled spectrophotometric assay, PDE4B Activity (Table 10); type: biochemical
PDE4B, sequence (Q07343 whole entry): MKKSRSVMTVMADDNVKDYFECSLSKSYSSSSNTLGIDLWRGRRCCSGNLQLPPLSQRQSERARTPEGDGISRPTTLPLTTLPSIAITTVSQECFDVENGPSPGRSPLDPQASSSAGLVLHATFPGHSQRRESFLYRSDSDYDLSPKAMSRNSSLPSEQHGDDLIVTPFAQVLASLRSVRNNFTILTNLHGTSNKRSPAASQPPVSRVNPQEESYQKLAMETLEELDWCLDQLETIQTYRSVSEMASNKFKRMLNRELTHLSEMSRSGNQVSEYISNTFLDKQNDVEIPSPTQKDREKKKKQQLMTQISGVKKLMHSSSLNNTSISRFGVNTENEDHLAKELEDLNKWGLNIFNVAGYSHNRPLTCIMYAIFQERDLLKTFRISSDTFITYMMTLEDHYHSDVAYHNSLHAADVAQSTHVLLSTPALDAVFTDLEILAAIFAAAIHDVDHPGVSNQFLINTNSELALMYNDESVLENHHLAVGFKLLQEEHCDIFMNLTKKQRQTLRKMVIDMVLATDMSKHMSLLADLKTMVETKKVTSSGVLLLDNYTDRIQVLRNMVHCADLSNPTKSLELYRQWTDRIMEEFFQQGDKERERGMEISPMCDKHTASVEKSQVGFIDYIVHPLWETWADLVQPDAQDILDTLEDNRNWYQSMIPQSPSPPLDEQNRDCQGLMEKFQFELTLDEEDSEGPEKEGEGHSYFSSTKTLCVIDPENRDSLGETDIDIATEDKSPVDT

[1] = human PDE4D, activity class, Table 9, read-out: hPDE4D
[2] = human PDE4B (hPDE4B), enzyme-coupled spectrophotometric assay, read-out: PDE4B Activity, hPDE4B

SMILES | IC50 (PDE4; [1]) [µM] | IC50 (PDE4B; [2]) [µM] | IC50 (PDE4) [µM] | IC50 (PDE4B) [µM]
O=[N+]([O-])c1cccc(-c2nc(Cc3ccc(F)cc3)ccc2OC(F)F)c1 [P-057] | < 5 | < 5 | – | –
COc1ccc(Cn2cc(NC(N)=O)ccc2=O)cc1-c1cccc([N+](=O)[O-])c1 [P-208, [1-(6-Methoxy-3′-nitro-biphenyl-3-ylmethyl)-6-oxo-1,6-dihydro-pyridin-3-yl]-urea] | 5 to 20 | 5 to 20 | – | –
COc1ccc(CN2C(=O)CCCC2=O)cc1-c1cccc([N+](=O)[O-])c1 [P-040, 1-(6-Methoxy-3′-nitro-biphenyl-3-ylmethyl)-piperidine-2,6-dione] | 5 to 20 | 5 to 20 | – | –
COc1ccc(COc2ccccn2)cc1-c1cccc([N+](=O)[O-])c1 [P-224, 2-(6-Methoxy-3′-nitro-biphenyl-3-ylmethoxy)-pyridine] | 5 to 20 | 5 to 20 | – | –
COc1ccc(Cc2ccc(N)cc2)c(F)c1-c1cccc(C(C)=O)c1 [P-261, 1-[3′-(4-Amino-benzyl)-2′-fluoro-6′-methoxy-biphenyl-3-yl]-ethanone; hydrochloride] | < 5 | < 5 | – | –
COc1ccc(Cn2cncn2)cc1-c1cccc(SC)c1 [P-085, 1-(6-Methoxy-3′-methylsulfanyl-biphenyl-3-ylmethyl)-1H-[1,2,4]triazole] | < 5 | < 5 | – | –
COc1ccc(Cn2cnc(C(N)=O)c2)c(F)c1-c1cccc(Cl)c1 [P-534, 1-(3′-Chloro-2-fluoro-6-methoxy-biphenyl-3-ylmethyl)-1H-imidazole-4-carboxylic acid amide] | < 5 | < 5 | – | –
COc1ccc(Cc2ccc(NS(C)(=O)=O)cc2)cc1-c1cccc([N+](=O)[O-])c1 [P-123] | < 5 | < 5 | – | –
COc1ccc(Cc2ccc(OCCN3CCCC3)cc2)cc1-c1cccc([N+](=O)[O-])c1 [P-165] | < 5 | 5 to 20 | – | –
COc1ccc(Cc2ccc(Nc3nccn3C)cc2)cc1-c1cccc(Cl)c1 [P-467, [4-(3′-Chloro-6-methoxy-biphenyl-3-ylmethyl)-phenyl]-(1-methyl-1H-imidazol-2-yl)-amine] | < 5 | < 5 | – | –
COc1ccc(Cc2ccc(C(C)(C)N)nc2)cc1-c1cccc(Cl)c1 [P-600, hydrochloride] | < 5 | 21 to 40 | – | –
COc1ccc(CN2CCCC2=O)cc1-c1ccc(F)c(F)c1 [P-223, 1-(3′,4′-difluoro-6-methoxy-biphenyl-3-ylmethyl)-pyrrolidin-2-one] | 5 to 20 | 5 to 20 | – | –
COc1ccc(CN2CCCC2=O)cc1-c1cccc(-c2nnco2)c1 [P-186] | 20 to 40 | 21 to 40 | – | –
COc1ccc(CN2C(=O)c3ccncc3C2=O)cc1-c1cccc([N+](=O)[O-])c1 [P-043, 2-(6-Methoxy-3′-nitro-biphenyl-3-ylmethyl)-pyrrolo[3,4-c]pyridine-1,3-dione] | < 5 | 5 to 20 | – | –
COc1ccc(Cc2ccc(CNC(=O)C(N)=O)nc2)c(F)c1-c1cccc(Cl)c1 [P-521, N-[5-(3′-Chloro-2-fluoro-6-methoxy-biphenyl-3-ylmethyl)-pyridin-2-ylmethyl]-oxalamide] | < 5 | < 5 | – | –
COc1ccc(Cc2ccc(N)nc2)c(F)c1-c1cccc(Cl)c1 [P-252, 5-(3′-Chloro-2-fluoro-6-methoxy-biphenyl-3-ylmethyl)-pyridin-2-ylamine] | < 5 | < 5 | – | –
COc1ccc(Cc2ccc(NS(C)(=O)=O)nc2)c(F)c1-c1cccc(Cl)c1 [P-258, N-[5-(3′-chloro-2-fluoro-6-methoxy-biphenyl-3-ylmethyl)-pyridin-2-yl]-methanesulfonamide] | < 5 | < 5 | – | –
COc1ccc(Cc2ccc3nc(C(N)=O)cn3c2)c(F)c1-c1cccc(Cl)c1 [P-429, 6-(3′-chloro-2-fluoro-6-methoxy-biphenyl-3-ylmethyl)-imidazo[1,2-a]pyridine-2-carboxylic acid amide] | < 5 | < 5 | – | –

SMILES | IC50 (PDE4; [1]) [µM] | IC50 (PDE4B; [2]) [µM] | IC50 (PDE4) [µM] | IC50 (PDE4B) [µM]
COc1ccc(Cc2ccc(NC(N)=O)cc2)c(F)c1-c1cccc(C(C)=O)c1 [P-269, [4-(3′-Acetyl-2-fluoro-6-methoxy-biphenyl-3-ylmethyl)-phenyl]urea] | < 5 | < 5 | – | –
COc1ccc(Cc2cccc(OC(N)=O)c2)c(F)c1-c1cccc(Cl)c1 [P-222] | – | – | < 5 | < 5
COc1ccc(Cc2ccc(C(=O)N(C)C)nc2)c(F)c1-c1cccc(Cl)c1 [P-382, 5-(3′-Chloro-2-fluoro-6-methoxy-biphenyl-3-ylmethyl)-pyridine-2-carboxylic acid dimethylamide] | < 5 | < 5 | – | –
COc1ccc(Cc2ccc(NC(N)=O)cc2)c(F)c1-c1cccc(Cl)c1 [P-243, [4-(3′-chloro-2-fluoro-6-methoxy-biphenyl-3-ylmethyl)-phenyl]-urea] | < 5 | < 5 | – | –
COc1cccc(-c2cc(CN3CCCC3=O)ccc2OC)c1 [P-184, 1-(6,3′-Dimethoxy-biphenyl-3-ylmethyl)-pyrrolidin-2-one] | 5 to 20 | 5 to 20 | – | –
COc1ccc(CN2CCOC2=O)cc1-c1cccc(C(F)(F)F)c1 [P-083] | 5 to 20 | 5 to 20 | – | –
COc1ccc(Cn2cnc(-c3cccnc3)c2)c(F)c1-c1cccc(Cl)c1 [P-479, 3-[1-(3′-Chloro-2-fluoro-6-methoxy-biphenyl-3-ylmethyl)-1H-imidazol-4-yl]-pyridine] | < 5 | 5 to 20 | – | –
COc1ccc(Cc2c(C)nn(CC(F)(F)F)c2C)cc1-c1cccc([N+](=O)[O-])c1 [P-090, 4-(6-Methoxy-3′-nitro-biphenyl-3-ylmethyl)-3,5-dimethyl-1-(2,2,2-trifluoro-ethyl)-1H-pyrazole] | < 5 | < 5 | – | –
COC(=O)c1cccc(-c2cc(Cc3ccc(F)cc3)ccc2OC)c1 [P-002] | < 5 | < 5 | – | –
COc1ccc(Cc2ccc(C(N)=O)nc2)c(F)c1-c1cccc(C(C)=O)c1 [P-328, 5-(3′-Acetyl-2-fluoro-6-methoxy-biphenyl-3-ylmethyl)-pyridine-2-carboxylic acid amide] | < 5 | < 5 | – | –
COc1ccc(CN2CCCC2=O)nc1-c1cccc([N+](=O)[O-])c1 [P-031, 1-[5-methoxy-6-(3-nitro-phenyl)-pyridin-2-ylmethyl]-pyrrolidin-2-one] | – | 21 to 40 | – | –
CNC(=O)Cc1ccc(OC)c(-c2cccc([N+](=O)[O-])c2)c1 [Cmpd P-027] | – | 5 to 20 | – | –
COc1ccc(CN2C[C@@H](OC(N)=O)CC2=O)cc1-c1cccc([N+](=O)[O-])c1 [P-253, Carbamic acid (S)-1-(6-methoxy-3′-nitro-biphenyl-3-ylmethyl)-5-oxo-pyrrolidin-3-yl ester] | – | 21 to 40 | – | –
COc1ccc(Cc2cc(N)cc(O)c2)c(F)c1-c1cccc(Cl)c1 [P-324, 3-Amino-5-(3′-chloro-2-fluoro-6-methoxy-biphenyl-3-ylmethyl)-phenol] | – | 21 to 40 | – | –
COc1ccc(Cc2ccncc2)nc1-c1cccc([N+](=O)[O-])c1 [P-019, 3-methoxy-2-(3-nitro-phenyl)-6-pyridin-4-ylmethyl-pyridine] | – | < 5 | – | –
COc1ccc(CO)c(O)c1-c1cccc([N+](=O)[O-])c1 [Cmpd P-149] | – | 5 to 20 | – | –
COc1ccc(CN2C(=O)c3ccccc3C2=O)cc1-c1ccc2c(c1)OCO2 [P-052, 2-(3-Benzo[1,3]dioxol-5-yl-4-methoxy-benzyl)-isoindole-1,3-dione] | < 5 | – | – | –
